Assays:
Assay type in all cases: cell-based
[1] = test system: mouse zygotes; experiment: DNA damage foci immunostaining in mouse zygotes/embryos
Description: (§1) Embryos, mouse and human, were cultured in Global Total (Life-Global) for the duration of the experiments and with added compounds as outlined below. Incubation in RNA polymerase inhibitors triptolide (1 mM) or alpha amanitin (20 mg/ml) was performed from the 2PN stage (day1) to day3 of human development. Incubation in aphidicolin was performed at 2 mM. […] Mirin was used at a concentration of 50 mM. Olaparib was used to inhibit PARP at a concentration of 10 mM. All experiments were conducted during incubation at 37° C. with 5% CO2 and 19-20% O2. Chemical stock solutions were prepared in DMSO at concentrations at least 1000× higher than the final concentration.
(§2) Mouse oocytes were activated at 1-6 hours post retrieval using 2 mM ionomycin (Sigma Aldrich) in Global Total medium for 5 minutes at 37° C. followed by culture in 10 mM puromycin and 5 mg/ml cytochalasin B for 3 hours, then cytochalasinB only for 2 hours and 10 minutes to prevent second polar body extrusion.
(§3) Following the experimental exposures, mouse and human embryos were fixed in 2% paraformaldehyde (PFA) and 0.25% Triton X-100 in PBS for 10 minutes at room temperature, serially washed in phosphate-buffered solution (PBS) at room temperature, then stored in PBS at 4° C. until staining and imaging. Embryos were placed in 10-20 ml droplets of primary antibody solution within plastic tissue culture dishes covered with mineral oil for 1 hour at room temperature, serially washed (×2) in PBS containing 0.01% Triton X-100 to prevent embryos sticking to oil, then transferred to 10-20 ml secondary antibody solution and Hoechst (dilution 1:500) for 30 minutes. Embryos were then serially washed (×2) and placed in 5 ml droplets of PBS with 0.5% serum albumin in uncoated glass bottom dishes (Mattek) covered with embryo culture oil for imaging. The following primary antibodies were used across experiments as described above: Oct-4, γH2AX, RPA32, RPA32 S4/S8, RPA32 S33, 53BP1, RAD51, Centromere, and phospho-CHK1. Phospho-specific antibodies were quality controlled through ATR dependence of foci formation in mouse zygotes, and for γH2AX also in human zygotes. […] The appropriate secondary antibodies conjugated with Alexa Fluor 488, Alexa Fluor 555, CF 568, or Alexa Fluor 647 were diluted at 1:500-1:1000. Ethynyl deoxyuridine (EdU) labeling of zygotes and embryos was performed using the labeling kit (Thermo Fisher Scientific) as described by the manufacturer. 10 mM EdU was added to culture medium for 1 h at the indicated time points, and cells were harvested and fixed thereafter. 5-ethynyl uridine (EU) labeling was performed by incubating day3 cleavage stage embryos for 4 hours in Global total containing 0.2 mM EU.
(§4) Embryos were imaged with confocal microscopy using a Zeiss LSM (LSM 710) at a magnification of 63× and the Zeiss Zen software. Images were obtained using 488-, 543- and 633-nm lasers and bright-field microscopy. The number of confocal sections was adjusted to capture the entire nucleus or the entire embryo according to the experimental design as described above. Cell numbers and staining foci numbers were counted manually. Nuclei were identified by the presence of Hoechst33342. Foci were identified if at least 3× greater intensity than nuclear average, spherical in appearance, and overlapping with Hoechst33342 staining. Inner cell masses were identified by the presence of Oct4 within a blastocyst embryo. Active DNA replication was identified by the presence of EdU. DNA damage was identified by the detection of γH2AX and RPA foci within the nucleus. Mechanisms of DNA repair were identified through the detection of RPA S4/S8, RPA S33, Rad51 and 53BP1 foci within the nucleus.

[2] = test system: human zygotes; experiment: DNA damage foci immunostaining in human zygotes/parthenotes
Description: as §1
Artificial activation of human MII oocytes was performed using two pulses of 2.7 kV/cm at 50 ms using ECFG21 (Nepagene) in fusion buffer consisting of 0.25 M d-sorbitol buffer containing 0.1 mM calcium acetate, 0.5 mM magnesium acetate, 0.5 mM HEPES, and 1 mg ml^−1 fatty-acid-free BSA as previously described (Tachibana et al., 2013). Thereafter, oocytes were incubated for 3.5-4 h in 10 mg/ml puromycin, followed by a wash step and following culture in Global total.
as §3, with “phospho-CHK1.” for “phospho-CHK1. Phospho-specific antibodies were quality controlled through ATR dependence of foci formation in mouse zygotes, and for γH2AX also in human zygotes.”
as §4

[3] = test system: mouse 1-cell embryos; experiment: timing of mitotic entry in mouse 1-cell embryos; conditions: application in G2 phase, depending on the time point of application
Description: as §1, §2

[4] = mice, aphidicolin incubation in G2 phase
[5] = human, aphidicolin incubation in G2 phase

## C[C@@]1(CO)[C@H](O)CC[C@@]2(C)[C@H]1CC[C@H]1C[C@@H]3C[C@@]12CC[C@]3(O)CO [aphidicolin]
[1]; 4-8 cell stage, 48 h post activation
  markers of DNA damage (γH2AX, Rpa32, Rpa32 phosphoS33): increased
[1]; G2 arrested zygotes
  time to formation of phospho-RPA32, γH2AX and Rad51 foci after fork stalling: 2 to 4 h
  time to resolution of foci after release from the compound: 1 to 2 h
[1]; mice, aphidicolin incubation
  RPA32-positive foci per haploid nucleus, average: 4.5 per haploid nucleus
  γH2AX foci positive for RPA32: Approximately 10%
[1]; [4]
  mean γH2AX foci: 43
  γH2AX foci, range: 0-228
[2]; aphidicolin from 15.5 h post activation
  time to formation of foci for γH2AX and RPA32: ≤ 6 h
[2]; human, aphidicolin incubation
  RPA32-positive foci per haploid nucleus, average: 1.8 per haploid nucleus
  γH2AX foci positive for RPA32: Approximately 10%
[2]; [5]
  mean γH2AX foci: 21
  γH2AX foci, range: 0-51
[3]
  mitotic entry: inhibited

Source: patent US20250034520A1, “INCREASING DEVELOPMENTAL POTENTIAL OF HUMAN PREIMPLANTATION EMBRYOS BY REDUCING GENETIC INSTABILITY, ANEUPLOIDIES AND CHROMOSOMAL MOSAICISM” (THE TRUSTEES OF COLUMBIA UNIVERSITY IN THE CITY OF NEW YORK, priority 2022, published 2025)
